# Test results published in ChEMBL document CHEMBL1129777, “Novel 6-substituted 2-aminotetralins with potent and selective affinity for the dopamine D3 receptor” (Bioorg Med Chem Lett, 1996).
# Columns and labels:
# [1] = molecular target: D(3) dopamine receptor (Homo sapiens, UniProt P35462); assay: Binding affinity against human Dopamine receptor D3 in Chinese hamster ovary cells using [3H]spiperone.; assay type: cell-based
# [2] = molecular target: D(2) dopamine receptor (Homo sapiens, UniProt P14416); assay: Binding affinity against human Dopamine receptor D2 in mouse LtK- cells using [3H]spiperone.; assay type: cell-based
# Chain of D(2) dopamine receptor (P14416 whole entry): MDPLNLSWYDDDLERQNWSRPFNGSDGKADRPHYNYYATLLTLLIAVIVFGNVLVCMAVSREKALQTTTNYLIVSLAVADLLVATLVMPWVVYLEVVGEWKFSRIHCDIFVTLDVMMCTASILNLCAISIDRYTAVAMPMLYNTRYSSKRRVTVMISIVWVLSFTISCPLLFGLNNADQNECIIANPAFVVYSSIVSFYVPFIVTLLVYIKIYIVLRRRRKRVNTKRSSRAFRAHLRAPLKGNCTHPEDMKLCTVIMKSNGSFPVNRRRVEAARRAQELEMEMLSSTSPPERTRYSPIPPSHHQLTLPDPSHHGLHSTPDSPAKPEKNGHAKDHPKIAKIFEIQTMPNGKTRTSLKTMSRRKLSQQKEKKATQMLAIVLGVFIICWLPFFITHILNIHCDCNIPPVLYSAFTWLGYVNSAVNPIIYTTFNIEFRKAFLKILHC
# Chain of D(3) dopamine receptor (P35462 whole entry): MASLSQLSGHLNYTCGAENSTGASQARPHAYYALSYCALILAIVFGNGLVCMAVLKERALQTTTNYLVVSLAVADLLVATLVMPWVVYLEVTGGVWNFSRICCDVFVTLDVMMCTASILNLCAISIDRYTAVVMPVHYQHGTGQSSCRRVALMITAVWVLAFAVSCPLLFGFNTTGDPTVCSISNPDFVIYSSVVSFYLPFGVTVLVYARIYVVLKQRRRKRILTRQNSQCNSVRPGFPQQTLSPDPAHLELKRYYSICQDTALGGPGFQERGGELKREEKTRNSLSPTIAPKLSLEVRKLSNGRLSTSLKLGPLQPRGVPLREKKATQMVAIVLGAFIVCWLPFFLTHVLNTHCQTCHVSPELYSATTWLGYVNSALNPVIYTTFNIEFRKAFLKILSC
Compound,Ki [1],Ki [2]
CCCN(CCC)[C@@H]1CCc2c(ccc(C(O)Cc3ccc(OC)cc3)c2OC)C1 (stereo not given in full),50.1 nM,–
CCCN(CCC)[C@H]1CCc2cc(CCc3ccc(Cl)cc3)ccc2C1,10 nM,126 nM
CCCN(CCC)[C@@H]1CCc2c(ccc(C(O)Cc3ccccc3)c2OC)C1 (stereo not given in full),63.1 nM,1000 nM
CCCN(CCC)[C@@H]1CCc2c(ccc(CCc3ccccc3)c2OC)C1,20 nM,–
CCCN(CCC)[C@@H]1CCc2c(ccc(C(O)Cc3ccc(Cl)cc3)c2OC)[C@@H]1C (stereo not given in full),25.1 nM,631 nM
CCCN(CCC)C1CCc2cc(CCc3ccccc3)ccc2C1 (stereo not given),3.98 nM,398 nM
CCCN(CCC)C1CCc2cc(CCc3ccc(O)cc3)ccc2C1 (stereo not given),12.6 nM,316 nM
CCCN(CCC)[C@@H]1CCc2c(ccc(CCc3ccc(C(F)(F)F)cc3)c2OC)C1,6.31 nM,100 nM
CCCN(CCC)[C@@H]1CCc2c(ccc(CCc3ccc(NS(C)(=O)=O)cc3)c2OC)C1,501 nM,–
CCCN(CCC)[C@@H]1CCc2c(ccc(C(O)Cc3ccc(Cl)cc3)c2OC)C1 (stereo in doubt),50.1 nM,1260 nM
CCCN(CCC)[C@@H]1CCc2cc(CCc3ccc(Cl)cc3)ccc2C1,3.98 nM,398 nM
"CCCN(CCC)[C@@H]1CCc2c(ccc(C(O)Cc3ccc(Cl)cc3)c2OC)C1 (single isomer, unassigned; isomer I)",6.31 nM,316 nM
CCCN(CCC)[C@@H]1CCc2c(ccc(C(O)Cc3ccc(Cl)c(Cl)c3)c2OC)C1 (stereo not given in full),20 nM,–
CCCN(CCC)[C@@H]1CCc2c(OC)cccc2[C@@H]1C,12.6 nM,63.1 nM

# Next, values leading:
Ki [1],Ki [2],Compound
1.58 nM,631 nM,CCCN(CCC)C1CCc2cc(CS(=O)(=O)c3ccc(OC)cc3)ccc2C1 (stereo not given)
3.98 nM,1000 nM,CCCN(CCC)C1CCc2cc(CCc3ccc(C(C)=O)cc3)ccc2C1 (stereo not given)
0.158 nM,200 nM,CCCN(CCC)[C@@H]1CCc2cc(CS(=O)(=O)c3ccc(I)cc3)ccc2C1
25.1 nM,6310 nM,CCCN(CCC)C1CCc2cc(CN(C(N)=O)c3ccc(OC)cc3)ccc2C1 (stereo not given)
6.31 nM,794 nM,CCCN(CCC)C1CCc2cc(CN(C(=O)OC)c3ccc(OC)cc3)ccc2C1 (stereo not given)
7.94 nM,631 nM,CCCN(CCC)C1CCc2cc(CN(C(C)=O)c3ccc(OC)cc3)ccc2C1 (stereo not given)
2 nM,251 nM,CCCN(CCC)C1CCc2cc(CCc3ccc(C(=O)OCC)cc3)ccc2C1 (stereo not given)
1.26 nM,501 nM,CCCN(CCC)[C@@H]1CCc2cc(CS(=O)(=O)c3ccc(OC)cc3)ccc2C1
1.26 nM,200 nM,CCCN(CCC)C1CCc2cc(CSc3ccc(OC)cc3)ccc2C1 (stereo not given)
631 nM,–,CCCN(CCC)C1CCc2cc(CCc3ccc(C(N)=O)cc3)ccc2C1 (stereo not given)
3160 nM,–,CCCN(CCC)C1CCc2cc(CCc3ccc(C(=O)O)cc3)ccc2C1 (stereo not given)
5.01 nM,126 nM,CCCN(CCC)[C@@H]1CCc2c(ccc(CCc3ccc(Cl)cc3)c2OC)C1
2 nM,794 nM,CCCN(CCC)C1CCc2cc(CCc3ccc(/C(C)=N\O)cc3)ccc2C1 (stereo not given)
3.16 nM,794 nM,CCCN(CCC)[C@@H]1CCc2cc(CCc3ccc(C(C)=O)cc3)ccc2C1
1580 nM,–,CCCN(CCC)C1CCc2cc(CCc3ccc(S(C)(=O)=O)cc3)ccc2C1 (stereo not given)
3.16 nM,251 nM,CCCN(CCC)C1CCc2cc(CCc3ccc(OC)cc3)ccc2C1 (stereo not given)
1 nM,316 nM,CCCN(CCC)[C@@H]1CCc2cc(CCc3ccc(/C(C)=N\O)cc3)ccc2C1
